Data as given in patent US20130323283A1, “COMPOSITIONS AND METHODS FOR TREATING FOXP3+ TREG RELATED DISEASES” (THE CHILDREN'S HOSPITAL OF PHILADELPHIA, priority 2010, published 2013).

Columns and labels:
CFSE-labeled T cells = assay: second parent-to-F1 assay (B6 T cells into B6D2F1 mice); format: in vivo; settings: 0.9 mg/kg/d for 3 days by Alzet pumps
From the text: The percentages of CFSE-labeled CD4 proliferating cells from DSMO- and C646-treated mice were 94.5% and 95.0%, respectively. The percentages of CFSE-labeled CD8 proliferating or dividing cells from DSMO- and C646-treated mice were 78.5% and 81.6%, respectively. Donor CD4 and CD8 cells (H-2d negative) from both groups had similar alloantigen-induced activation and proliferation (p>0.05).

cardiac allografts = assay: cardiac allograft model (BALB/c hearts into B6 RAG-/- recipients with adoptive transfer); format: in vivo, mice
From the text: The effects of several HAT inhibitors (HATi) in a cardiac allograph model were studied in three experiments. This model involved vascularized cardiac allografts from BALB/c donors transplanted into immunodeficient C57BL/6 RAG−/− (B6 RAG−/−) recipients. The recipients were adoptively transferred with 1×10^6 purified C57BL/6 Teff cells (CD4+CD25−) alone or in combination with 0.5×10^6 purified Treg cells (CD4+CD25+). The cardiac allograft survival rates of the allograft recipients were monitored over a period of 120 days post-transplant.
In the first experiment, the allograft recipients were adoptively transferred with 1×10^6 Teff cells and 0.5×10^6 purified Tregs (CD4+CD25+), and treated with DMSO (control) or a HAT inhibitor via Alzet pump. Four HAT inhibitors were tested. […] One was a PCAF/GCN5 inhibitor, Lys-20-CoA-Tat. […] Rejection was defined as cessation of heartbeat.
The p300i was delivered to the allograft recipients at 0.9 mg/kg/d for 14 d using Alzet pumps.
In the third experiment, B6/RAG−/− mice (n=4/grp) were engrafted with fully MHC-mismatched BALB/c cardiac grafts and adoptively transferred with WT B6 Teff cells (1×10^6) alone or plus Tregs (0.5×10^6). […] Use of p300−/− Tregs was also unable to suppress Teff cells and prolong allograft survival in this adoptive transfer model.

B6 mice = assay: T cell proportions in lymph nodes and spleen of treated mice; format: in vivo; settings: for CD4 proportion / CD8 proportion / CD62L CD44 proportion / Foxp3+ CD4 proportion: 0.9 mg/kg/day via Alzet pump for 7 days
Experimental: (§1) Treg and Teff cells were purified using magnetic beads from DMSO- or p300i-treated mice.
The proportions of CD4, CD8, Foxp3+ CD4, or CD62L CD44 (markers of memory vs. naive T cells) cells in lymph nodes (LN) and spleen (SP) of DMSO- and C646-treated mice were determined as shown in Table 4.

Tregs and Teff cells = assay: Treg suppression assays with cells purified from treated mice; format: in vivo; settings: Treg:Teff 2:1 to 0:1
From the text: as §1

[1] = tested on: CFSE-labeled CD4 and CD8 cells; assay: first parent-to-F1 assay (C57BL/6->DBA/B6), alloantigen-induced T cell proliferation in vivo; parameters: species or system mice; settings: 0.8 mg/kg/d continuous via Alzet pump; 3 day assay
From the text: In the first parent-to-F1 assay (C57BL/6->DBA/B6) (Tao et al., J. Immunol. (2005) 175:5774-82; Tao et al., J. Immunol. (2008) 180:6649-55; the contents of both of which are incorporated herein in their entireties), activation and proliferation of adoptively transferred CFSE-labeled CD4 and CD8 cells was monitored by flow cytometry in a 3 day assay. […] The percentages of CFSE-labeled CD4 proliferating or dividing cells from DSMO- and C646-treated mice were 65% and 73%, respectively. The percentages of CFSE-labeled CD8 proliferating or dividing cells from DSMO- and C646-treated mice were 93% and 95%, respectively.

Teffs and Tregs = assay: CD4+ Foxp3+ proportion and MFI in Teffs and Tregs by flow cytometry; format: cell-based; settings: 6 hours
Experimental: Teffs and Tregs were isolated, and treated with 5, 10, or 20 μM p300i or DMSO for 6 hours. Flow cytometry was used to determine the CD4+ Foxp3+ proportion in Teffs or Tregs (Table 2) and the mean fluorescent intensity (MFI) of CD4+ Foxp3+ cells in Teffs or Tregs (Table 3) before or after being treated with p300i or DMSO.

Treg and Teff cells [2] = assay: gene expression by Treg and Teff cells from treated mice (qPCR); format: in vivo; settings: cells from mice given 0.9 mg/kg/day for 7 days
Experimental: as §1
Gene expression by Treg and Teff cells from DSMO- or C646-treated mice (four mice/group) was analyzed by qPCR.

TC1 lung cancer cells [3] = assay: TC1 lung cancer tumor growth in WT B6 mice; format: in vivo
Experimental: In the second experiment, p300 inhibition was achieved by using a p300 inhibitor. TC1 lung cancer cells were injected in the flanks of WT B6 mice. […] Tumor volume was monitored in the mice on days 6, 10, 12, 15 and 19 post-tumor injection (FIG. 5B). […] DMSO- and C646-treated mice having tumors were obtained as described in Example 9. […] The growth of tumors in the mice was monitored by tumor volume and tumor weight (FIG. 6B).

Tregs = assay: in vitro murine Treg suppression assay (CFSE-labeled Teff proliferation); format: cell-based; settings: for % proliferating cells: 5 μM, 72 hours
Experimental: Med. (2007) 13:1299-307, the contents of which are incorporated by their entireties. In these assays, effector T cells (Teffs) were labeled with carboxyfluorescein diacetate succinimidyl ester (CFSE), and stimulated by CD3 mAb plus irradiated antigen presenting cells (APCs). […] The percentage of proliferating CFSE-labeled Teffs in each mixture was assessed by flow cytometry after 72 hours as shown in Table 1.

Treg and Teff cells [4] = assay: Treg and Teff gene expression in vitro by qPCR; format: cell-based; settings: 5 μM, 24 hours, CD3/CD28 mAbs plus IL-2
Experimental: Gene expression Foxp3, CTLA-4, GITR and TGF-β in the activated Treg and Teff cells was determined by qPCR (mean±SD, n=3/grp) and normalized to 18S.

TC1 lung cancer cells [5] = assay: TC1 lung cancer tumor growth in immunodeficient RAG-/- mice; format: in vivo
Experimental: TC1 lung cancer cells were injected in the flanks of RAG−/− mice. […] Tumors were harvested from the mice 17 days post-tumor injection. Tumor volume was monitored on days 0, 5, 10, 13 and 17 post-tumor injection. […] Tumors were exposed to C646 in RAG−/− mice. […] No effects on acetylation of certain p300-independent targets in the tumor extracts was observed (e.g. acetylation of alpha-tubulin was unimpaired).

[6] = compared with DMSO-treated mice, p<0.005
[7] = qPCR, tumors from treated mice vs DMSO

graft function (isografts) (cardiac allografts; second experiment: WT B6 mice with normal B6 hearts): does not directly affect graft function
Compound: CC1=NN(c2ccc(C(=O)O)cc2)C(=O)/C1=C\c1ccc(-c2cc(C)c(C)cc2[N+](=O)[O-])o1 [C646]
percentage of CFSE-labeled CD4 proliferating cells (CFSE-labeled T cells): 95.0% | percentage of CFSE-labeled CD8 proliferating or dividing cells (CFSE-labeled T cells): 81.6% | cardiac allograft rejection (cessation of heartbeat) (cardiac allografts; first experiment: 1×10^6 Teff plus 0.5×10^6 Tregs, HAT inhibitor via Alzet pump, DMSO gave long-term survival): restored rejection | Teff cell responses in vivo (allograft rejection) (cardiac allografts; second experiment: Teff cells alone plus p300i 0.9 mg/kg/d for 14 d, Alzet pumps): does not suppress Teff cell responses in vivo | T cell-dependent graft rejection (cardiac allografts; third experiment: Teff plus Tregs, Alzet pumps for 14 days): restored T cell-dependent graft rejection | effect on the proportions of the tested cells (CD4, CD8, Foxp3+ CD4, CD62L CD44) (B6 mice; LN and SP, compared to DMSO-treated mice, 0.9 mg/kg/day, 7 days): negligible effect | CD4 proportion (B6 mice; LN): 35 | CD8 proportion (B6 mice; LN): 34 | CD62L CD44 proportion (B6 mice; LN): 6 | Foxp3+ CD4 proportion (B6 mice; LN): 8 | CD4 proportion (B6 mice; SP): 18 | CD8 proportion (B6 mice; SP): 12 | CD62L CD44 proportion (B6 mice; SP): 12 | Foxp3+ CD4 proportion (B6 mice; SP): 13 | ability of Tregs to suppress proliferation of Teff cells from untreated mice (Tregs and Teff cells; Tregs from C646-treated mice, p<0.05): decreased | response of Teff cells from treated mice to suppression by control normal Tregs (Tregs and Teff cells; Tregs from untreated mice): responded normally | alloantigen-induced T cell activation or proliferation (CFSE dilution) or production of cytokines such as IL-2 and IFN-γ [1]: did not impair | percentage of CFSE-labeled CD4 proliferating or dividing cells [1]: 73% | percentage of CFSE-labeled CD8 proliferating or dividing cells [1]: 95% | mean fluorescent intensity (MFI) of CD4+ Foxp3+ cells (Teffs and Tregs; Teff, 5 μM): 121 | mean fluorescent intensity (MFI) of CD4+ Foxp3+ cells (Teffs and Tregs; Teff, 10 μM): 108 | mean fluorescent intensity (MFI) of CD4+ Foxp3+ cells (Teffs and Tregs; Teff, 20 μM): 91 | CD4+ Foxp3+ proportion (Teffs and Tregs; Teffs, 5 μM): 2 | CD4+ Foxp3+ proportion (Teffs and Tregs; Teffs, 10 μM): 2 | CD4+ Foxp3+ proportion (Teffs and Tregs; Teffs, 20 μM): 1 | mean fluorescent intensity (MFI) of CD4+ Foxp3+ cells (Teffs and Tregs; Treg, 5 μM): 280 | mean fluorescent intensity (MFI) of CD4+ Foxp3+ cells (Teffs and Tregs; Treg, 10 μM): 253 | mean fluorescent intensity (MFI) of CD4+ Foxp3+ cells (Teffs and Tregs; Treg, 20 μM): 138 | CD4+ Foxp3+ proportion (Teffs and Tregs; Tregs, 5 μM): 71 | CD4+ Foxp3+ proportion (Teffs and Tregs; Tregs, 10 μM): 68 | CD4+ Foxp3+ proportion (Teffs and Tregs; Tregs, 20 μM): 49 | expression of CTLA4 by Treg cells (Treg and Teff cells [2]; p<0.01): significantly decreased | expression of GITR by Treg cells (Treg and Teff cells [2]; p<0.01): significantly decreased | expression of IL-10 by Treg cells (Treg and Teff cells [2]; p<0.01): significantly decreased | expression of TGF-β by Treg cells (Treg and Teff cells [2]; p<0.01): significantly decreased | expression of CTLA4, GITR, IL-10 and TGF-β by Teff cells (Treg and Teff cells [2]; p>0.05): unchanged | tumor growth (tumor volume) (TC1 lung cancer cells [3]; 0.9 mg/kg/day for about 14 days via Alzet pumps from day 6, days 6-19): suppressed tumor growth | tumor growth by volume (TC1 lung cancer cells [3]; [6]): significantly reduced | tumor growth by weight (TC1 lung cancer cells [3]; [6]): significantly reduced | intratumoral CD4 mRNA (TC1 lung cancer cells [3]; [7]): significantly increased | intratumoral CD8 mRNA (TC1 lung cancer cells [3]; [7]): comparable | intratumoral Foxp3 mRNA (TC1 lung cancer cells [3]; [7]): significantly reduced | intratumoral granzyme B mRNA (TC1 lung cancer cells [3]; [7]): significantly increased | IFN-γ production by purified CD8 (ELISPOT) (TC1 lung cancer cells [3]; tumor-bearing treated mice): increased | suppressive actions of Tregs (Tregs; HATi 5 μM): largely abrogated the suppressive actions of Tregs | % proliferating cells (Tregs; Treg:Teff 0:1): 88% | % proliferating cells (Tregs; Treg:Teff 1:1): 66% | % proliferating cells (Tregs; Treg:Teff 1:2): 70% | % proliferating cells (Tregs; Treg:Teff 1:4): 78% | % proliferating cells (Tregs; Treg:Teff 1:8): 85% | Treg expression of GITR gene (Treg and Teff cells [4]): downregulated | Treg expression of CTLA-4 gene (Treg and Teff cells [4]; statistical significance): downregulated | Treg expression of Foxp3 gene (Treg and Teff cells [4]; statistical significance): downregulated | Treg expression of TGF-β gene (Treg and Teff cells [4]; statistical significance): downregulated | tumor growth (tumor volume) (TC1 lung cancer cells [5]; Alzet pumps from day 5, up to day 17): did not impair tumor growth | acetylation of histone 3 in tumor extracts (TC1 lung cancer cells [5]; compared to DMSO-treated mice): Decreased acetylation of histone 3 | acetylation of alpha-tubulin in tumor extracts (TC1 lung cancer cells [5]; p300-independent target): unimpaired
